# Patent publication US8586550B2, “Thiazole derivatives as SGLT2 inhibitors and pharmaceutical composition comprising same” (Green Cross Corporation, priority 2010, dated 2013)
# Target: T1, Human SGLT2 (hSGLT2) (Homo sapiens, UniProt P31639)
# T1 construct: expressed in transfected cells
# T1 sequence (P31639 1-672): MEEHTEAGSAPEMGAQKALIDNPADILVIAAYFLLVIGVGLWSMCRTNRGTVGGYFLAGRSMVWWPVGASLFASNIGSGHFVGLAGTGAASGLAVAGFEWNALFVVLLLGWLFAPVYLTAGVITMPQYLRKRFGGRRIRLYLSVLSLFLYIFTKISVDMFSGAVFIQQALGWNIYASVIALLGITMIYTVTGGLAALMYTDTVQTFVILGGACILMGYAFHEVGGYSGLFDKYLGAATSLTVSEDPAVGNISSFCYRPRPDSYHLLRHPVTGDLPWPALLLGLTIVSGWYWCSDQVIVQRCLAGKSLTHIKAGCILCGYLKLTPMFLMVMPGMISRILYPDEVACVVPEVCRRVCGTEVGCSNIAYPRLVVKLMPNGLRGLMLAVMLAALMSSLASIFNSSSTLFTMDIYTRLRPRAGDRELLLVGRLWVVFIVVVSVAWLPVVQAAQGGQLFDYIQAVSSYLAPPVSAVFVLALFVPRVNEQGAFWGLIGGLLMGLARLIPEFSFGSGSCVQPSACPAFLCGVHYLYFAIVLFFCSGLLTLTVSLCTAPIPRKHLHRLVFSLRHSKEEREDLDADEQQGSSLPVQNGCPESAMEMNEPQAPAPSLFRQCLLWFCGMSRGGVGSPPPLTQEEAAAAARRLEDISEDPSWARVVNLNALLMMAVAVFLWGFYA
# Assay: Sodium-dependent glucose transport (14C-AMG uptake) assay in CHO cells stably expressing hSGLT2
# Format: cell-based
# Conditions: CHO cells expressing hSGLT2, 14C-AMG uptake, 37° C. for 2 h; single determinations; read-out: hSGLT2 Inhibitory Activity IC50
# Excerpt: Cloning and Cell Line Construction for Human SGLT2
# Human SGLT2 (hSGLT2) gene was amplified by PCR from cDNA-Human Adult Normal Tissue Kidney (Invitrogen). The hSGLT2 sequence was cloned into pcDNA3.1(+) for mammalian expression and were stably transfected into chinese hamster ovary (CHO) cells. SGLT2-expressing clones were selected based on resistance to G418 antibiotic (Geneticin) and activity in the ^14C-α-methyl-D-glucopyranoside (^14C-AMG) uptake assay.
# Inhibitory Effects on Human SGLT2 Activities
# For sodium-dependent glucose transport assay, cells expressing hSGLT2 were seeded into a 96-well culture plate at a density of 5×10^4 cells/well in RPMI medium 1640 containing 10% fetal bovine serum. The cells were used 1 day after plating. They were incubated in pretreatment buffer (10 mM HEPES, 5 mM Tris, 140 mM choline chloride, 2 mM KCl, 1 mM CaCl2, and 1 mM MgCl2, pH 7.4) at 37° C. for 10 min. They were then incubated in uptake buffer (10 mM HEPES, 5 mM Tris, 140 mM NaCl, 2 mM KCl, 1 mM CaCl2, 1 mM MgCl2, and 1 mM ^14C-nonlabeled AMG, pH 7.4) containing ^14C-labeled (8 μM) and inhibitor or dimethylsulfoxide (DMSO) vehicle at 37° C. for 2 h. Cells were washed twice with washing buffer (pretreatment buffer containing 10 mM AMG at room temperature) and then the radioactivity was measured using a liquid scintillation counter. IC50 was determined by nonlinear regression analysis using GraphPad PRISM [Katsuno, K. et al. J. Pharmacol. Exp. Ther. 2007, 320, 323-330; Han, S. et al. Deabetes, 2008, 57, 1723-1729].
row,IC50 [nM],SMILES
1,1.75,"OC[C@H]1O[C@@H](c2ccc(Cl)c(Cc3ncc(-c4ccco4)s3)c2)[C@H](O)[C@@H](O)[C@@H]1O [Example 5, (2S,3R,4R,5S,6R)-2-(4-Chloro-3-((5-(furan-2-yl)thiazol-2-yl)methyl)phenyl)-6-(hydroxymethyl)-tetrahydro-2H-pyran-3,4,5-triol]"
2,5.69,"Cc1ccc([C@@H]2O[C@H](CO)[C@@H](O)[C@H](O)[C@H]2O)cc1Cc1ncc(-c2nccs2)s1 [Example 34, (2S,3R,4R,5S,6R)-2-(3-(2,5′-Bithiazol-2′-ylmethyl)-4-methylphenyl)-6-(hydroxymethyl)tetrahydro-2H-pyran-3,4,5-triol]"
3,180,"CCc1cnc(Cc2cn([C@@H]3O[C@H](CO)[C@@H](O)[C@H](O)[C@H]3O)c3ccccc23)s1 [Example 133, (2R,3R,4S,5S,6R)-2-(3-((5-Ethylthiazol-2-yl)methyl)-1H-indol-1-yl)-6-(hydroxymethyl)tetrahydro-2H-pyran-3,4,5-triol]"
4,60.5,"CCCCc1cnc(Cc2cc([C@@H]3O[C@H](CO)[C@@H](O)[C@H](O)[C@H]3O)c(Cl)cc2Cl)s1 [Example 66, (2S,3R,4R,5S,6R)-2-(5-((5-Butylthiazol-2-yl)methyl)-2,4-dichlorophenyl)-6-(hydroxymethyl)tetrahydro-2H-pyran-3,4,5-triol]"
5,13.3,"OC[C@H]1O[C@@H](c2cc(Cc3ncc(-c4ccoc4)s3)c(Cl)cc2Cl)[C@H](O)[C@@H](O)[C@@H]1O [Example 60, (2S,3R,4R,5S,6R)-2-(2,4-Dichloro-5-((5-(furan-3-yl)thiazol-2-yl)methyl)phenyl)-6-(hydroxymethyl)tetrahydro-2H-pyran-3,4,5-triol]"
6,5.35,"OC[C@H]1O[C@@H](c2cc(Cc3ncc(-c4ccoc4)s3)c(Cl)cc2F)[C@H](O)[C@@H](O)[C@@H]1O [Example 54, (2S,3R,4R,5S,6R)-2-(4-Chloro-2-fluoro-5-((5-(furan-3-yl)thiazol-2-yl)methyl)phenyl)-6-(hydroxymethyl)tetrahydro-2H-pyran-3,4,5-triol]"
7,176,"Cc1ccc([C@@H]2O[C@H](CO)[C@@H](O)[C@H](O)[C@H]2O)cc1Cc1ncc(Cc2ccccc2)s1 [Example 39, (2S,3R,4R,5S,6R)-2-(3-((5-Benzylthiazol-2-yl)methyl)-4-methylphenyl)-6-(hydroxymethyl)tetrahydro-2H-pyran-3,4,5-triol]"
8,87.2,"OC[C@H]1O[C@@H](c2ccc(C(F)(F)F)c(Cc3ncc(-c4ccc(F)cc4)s3)c2)[C@H](O)[C@@H](O)[C@@H]1O [Example 52, (2S,3R,4R,5S,6R)-2-(3-((5-(4-Fluorophenyl)thiazol-2-yl)methyl)-4-(trifluoromethyl)phenyl)-6-(hydroxymethyl)tetrahydro-2H-pyran-3,4,5-triol]"
9,2.87,"CCOc1cc(Cl)c(Cc2ncc(-c3ccccc3)s2)cc1[C@@H]1O[C@H](CO)[C@@H](O)[C@H](O)[C@H]1O [Example 81, (2S,3R,4R,5S,6R)-2-(4-Chloro-2-ethoxy-5-((5-phenylthiazol-2-yl)methyl)phenyl)-6-(hydroxymethyl)tetrahydro-2H-pyran-3,4,5-triol]"
10,38.7,"CCCCCCc1cnc(Cc2cc([C@@H]3O[C@H](CO)[C@@H](O)[C@H](O)[C@H]3O)c(Cl)cc2Cl)s1 [Example 67, (2S,3R,4R,5S,6R)-2-(2,4-Dichloro-5-((5-hexylthiazol-2-yl)methyl)phenyl)-6-(hydroxymethyl)tetrahydro-2H-pyran-3,4,5-triol]"
11,2.31,"OC[C@H]1O[C@@H](c2cc(Cc3ncc(-c4ccsc4)s3)c(Cl)cc2Cl)[C@H](O)[C@@H](O)[C@@H]1O [Example 62, (2S,3R,4R,5S,6R)-2-(2,4-Dichloro-5-((5-(thiophen-3-yl)thiazol-2-yl)methyl)phenyl)-6-(hydroxymethyl)tetrahydro-2H-pyran-3,4,5-triol]"
12,67.3,"CCCc1cnc(Cc2cc([C@@H]3O[C@H](CO)[C@@H](O)[C@H](O)[C@H]3O)c3ccccc3c2O)s1 [Example 126, (2S,3R,4R,5S,6R)-2-(4-Hydroxy-3-((5-propylthiazol-2-yl)methyl)naphthalen-1-yl)-6-(hydroxymethyl)-tetrahydro-2H-pyran-3,4,5-triol]"
13,7.97,"OC[C@H]1O[C@@H](c2cc(Cc3ncc(-c4cccs4)s3)c(O)c3ccccc23)[C@H](O)[C@@H](O)[C@@H]1O [Example 124, (2S,3R,4R,5S,6R)-2-(4-Hydroxy-3-((5-(thiophen-2-yl)thiazol-2-yl)methyl)naphthalen-1-yl)-6-(hydroxymethyl)-tetrahydro-2H-pyran-3,4,5-triol]"
14,2.12,"OC[C@H]1O[C@@H](c2cc(Cc3ncc(-c4ccsc4)s3)c(Cl)cc2F)[C@H](O)[C@@H](O)[C@@H]1O [Example 56, (2S,3R,4R,5S,6R)-2-(4-Chloro-2-fluoro-5-((5-(thiophen-3-yl)thiazol-2-yl)methyl)phenyl)-6-(hydroxymethyl)tetrahydro-2H-pyran-3,4,5-triol]"
15,4.94,"COc1c(Cc2ncc(-c3cccs3)s2)cc([C@@H]2O[C@H](CO)[C@@H](O)[C@H](O)[C@H]2O)c2ccccc12 [Example 96, (2R,3S,4R,5R,6S)-2-(Hydroxymethyl)-6-(4-methoxy-3-((5-(thiophen-2-yl)thiazol-2-yl)methyl)naphthalen-1-yl)-tetrahydro-2H-pyran-3,4,5-triol]"
16,110,"OC[C@H]1O[C@@H](c2ccc(Cl)c(C3(c4ncc(-c5ccoc5)s4)CC3)c2)[C@H](O)[C@@H](O)[C@@H]1O [Example 28, (2S,3R,4R,5S,6R)-2-(4-Chloro-3-(1-(5-(furan-3-yl)thiazol-2-yl)cyclopropyl)phenyl)-6-(hydroxymethyl)tetrahydro-2H-pyran-3,4,5-triol]"
17,5,"CCCCCCc1cnc(Cc2cc([C@@H]3O[C@H](CO)[C@@H](O)[C@H](O)[C@H]3O)ccc2Cl)s1 [Example 15, (2S,3R,4R,5S,6R)-2-(4-Chloro-3-((5-hexylthiazol-2-yl)methyl)phenyl)-6-(hydroxymethyl)-tetrahydro-2H-pyran-3,4,5-triol]"
18,47.1,"OC[C@H]1O[C@@H](c2ccc(Cl)c(C3(c4ncc(-c5ccco5)s4)CC3)c2)[C@H](O)[C@@H](O)[C@@H]1O [Example 3, (2S,3R,4R,5S,6R)-2-(4-Chloro-3-(1-(5-(furan-2-yl)thiazol-2-yl)cyclopropyl)phenyl)-6-(hydroxymethyl)-tetrahydro-2H-pyran-3,4,5-triol]"
19,1.42,"OC[C@H]1O[C@@H](c2ccc(Cl)c(Cc3cnc(-c4ccco4)s3)c2)[C@H](O)[C@@H](O)[C@@H]1O [Example 184, (2S,3R,4R,5S,6R)-2-(4-Chloro-3-((2-(furan-2-yl)thiazol-5-yl)methyl)phenyl)-6-(hydroxymethyl)tetrahydro-2H-pyran-3,4,5-triol]"
20,9.48,"CSc1ncc(Cc2cc([C@@H]3O[C@H](CO)[C@@H](O)[C@H](O)[C@H]3O)ccc2Cl)s1 [Example 197, (2S,3R,4R,5S,6R)-2-(4-Chloro-3-((2-(methylthio)thiazol-5-yl)methyl)phenyl)-6-(hydroxymethyl)tetrahydro-2H-pyran-3,4,5-triol]"
21,1.24,"C=CCOc1cc(Cl)c(Cc2ncc(-c3ccco3)s2)cc1[C@@H]1O[C@H](CO)[C@@H](O)[C@H](O)[C@H]1O [Example 83, (2S,3R,4R,5S,6R)-2-(2-(Allyloxy)-4-chloro-5-((5-(furan-2-yl)thiazol-2-yl)methyl)phenyl)-6-(hydroxymethyl)tetrahydro-2H-pyran-3,4,5-triol]"
22,4.47,"OC[C@H]1O[C@@H](c2ccc(Cl)c(Cc3cnc(-c4ccoc4)s3)c2)[C@H](O)[C@@H](O)[C@@H]1O [Example 186, (2S,3R,4R,5S,6R)-2-(4-Chloro-3-((2-(furan-3-yl)thiazol-5-yl)methyl)phenyl)-6-(hydroxymethyl)tetrahydro-2H-pyran-3,4,5-triol]"
